Results: the supplement of paper PMC10307832

Legend:
Test in all cases: relative viability (nuclei count vs DMSO), 5 days (fraction); higher = more cells survive
PAC-1 + Tozasertib = compound: C=CCc1cccc(/C=N/NC(=O)CN2CCN(Cc3ccccc3)CC2)c1O [PAC-1] + Cc1cc(Nc2cc(N3CCN(C)CC3)nc(Sc3ccc(NC(=O)C4CC4)cc3)n2)n[nH]1 [Tozasertib] (partner 0.1 µM)
How it was run: (§1)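 Relative viability was taken as the ratio of nuclei in treated wells to nuclei in vehicle wells. Lung cancer cell lines in 1536-well plates received compounds by pin tool one day after seeding, either one drug alone or a fixed anchor-drug dose plus five library-drug doses (not always all listed) in √10 steps. Nuclei were counted on 4× images after 5 days of treatment, and values are medians of duplicate plates.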

PAC-1 + Foretinib = compound: C=CCc1cccc(/C=N/NC(=O)CN2CCN(Cc3ccccc3)CC2)c1O [PAC-1] + COc1cc2c(Oc3ccc(NC(=O)C4(C(=O)Nc5ccc(F)cc5)CC4)cc3F)ccnc2cc1OCCCN1CCOCC1 [Foretinib] (partner 0.25 µM)
How it was run: as §1

PAC-1 + Crizotinib = compound: C=CCc1cccc(/C=N/NC(=O)CN2CCN(Cc3ccccc3)CC2)c1O [PAC-1] + C[C@@H](Oc1cc(-c2cnn(C3CCNCC3)c2)cnc1N)c1c(Cl)ccc(F)c1Cl [Crizotinib] (partner 1 µM)
How it was run: as §1

PAC-1 + OSI-027 = compound: C=CCc1cccc(/C=N/NC(=O)CN2CCN(Cc3ccccc3)CC2)c1O [PAC-1] + COc1cccc2cc(-c3nc([C@H]4CC[C@H](C(=O)O)CC4)n4ncnc(N)c34)[nH]c12 [OSI-027] (partner 0.5 µM)
How it was run: as §1

PAC-1 + Alpelisib = compound: C=CCc1cccc(/C=N/NC(=O)CN2CCN(Cc3ccccc3)CC2)c1O [PAC-1] + Cc1nc(NC(=O)N2CCC[C@H]2C(N)=O)sc1-c1ccnc(C(C)(C)C(F)(F)F)c1 [Alpelisib] (partner 2 µM)
How it was run: as §1

Cell Line	relative viability (PAC-1 + Tozasertib; first compound 0.02 µM)	relative viability (PAC-1 + Tozasertib; first compound 0.06325 µM)	relative viability (PAC-1 + Tozasertib; first compound 0.2 µM)	relative viability (PAC-1 + Tozasertib; first compound 2 µM)	relative viability (PAC-1 + Foretinib; first compound 0.02 µM)	relative viability (PAC-1 + Foretinib; first compound 0.06325 µM)	relative viability (PAC-1 + Foretinib; first compound 0.2 µM)	relative viability (PAC-1 + Foretinib; first compound 2 µM)	relative viability (PAC-1 + Crizotinib; first compound 0.02 µM)	relative viability (PAC-1 + Crizotinib; first compound 0.06325 µM)	relative viability (PAC-1 + Crizotinib; first compound 0.2 µM)	relative viability (PAC-1 + Crizotinib; first compound 2 µM)	relative viability (PAC-1 + OSI-027; first compound 0.02 µM)	relative viability (PAC-1 + OSI-027; first compound 0.06325 µM)	relative viability (PAC-1 + OSI-027; first compound 0.2 µM)	relative viability (PAC-1 + OSI-027; first compound 2 µM)	relative viability (PAC-1 + Alpelisib; first compound 0.02 µM)	relative viability (PAC-1 + Alpelisib; first compound 0.06325 µM)	relative viability (PAC-1 + Alpelisib; first compound 0.2 µM)	relative viability (PAC-1 + Alpelisib; first compound 2 µM)
NCI-H322M	0.496	0.537	0.467	0.477	0.859	0.948	0.986	0.887	0.792	0.839	0.877	0.854	0.547	0.586	0.543	0.505	0.7	0.857	0.794	0.911
NCI-H441	0.754	0.597	0.505	0.606	0.977	0.943	0.817	0.896	0.725	0.77	0.714	0.655	0.521	0.759	0.501	0.413	0.629	0.671	0.679	0.57
NCI-H2347	0.534	0.572	0.576	0.511	0.786	0.771	0.601	1.3	0.82	0.715	0.748	0.826	0.4	0.395	0.38	0.46	1.08	1.13	0.992	1.05
HCC-827	0.397	0.401	0.4	0.421	1.11	1.03	0.964	1.03	0.982	0.943	0.875	0.889	0.763	0.692	0.703	0.792	0.964	0.927	0.895	1
LOU-NH91	0.624	0.7	0.645	0.679	0.919	0.931	0.982	0.898	0.747	0.762	0.723	0.728	0.643	0.68	0.727	0.715	0.706	0.739	0.692	0.738
NCI-H1651	0.615	0.786	0.631	0.65	0.796	0.72	0.735	0.917	0.815	0.898	0.874	0.755	0.766	0.744	0.64	0.612	0.917	1.12	0.848	0.867
PC-3 [JPC-3]	0.883	0.859	0.842	0.857	1.06	1.02	0.996	0.994	1.03	1.07	0.944	0.972	0.834	0.698	0.773	0.821	1	1.09	0.98	0.972
NCI-H596	0.903	0.885	0.857	1.01	0.767	0.832	0.876	0.894	0.974	0.952	0.98	1.07	0.733	0.745	0.695	0.719	0.428	0.561	0.472	0.446
NCI-H838	0.283	0.239	0.262	0.279	1.06	0.953	1.01	1.06	0.776	0.758	0.801	0.92	0.359	0.386	0.373	0.398	1.07	1.01	0.962	1.04
NCI-H358	0.103	0.101	0.0952	0.109	0.622	0.573	0.645	0.574	0.552	0.531	0.751	0.453	0.7	0.632	0.693	0.631	0.811	0.836	0.924	0.572
NCI-H647	0.336	0.403	0.256	0.242	1.17	1.08	1.29	1.31	1.06	1.12	1.03	0.812	0.684	0.762	0.594	0.617	0.995	1.08	1.14	0.709
HCC-366	0.117	0.0944	0.121	0.0773	0.903	0.925	0.899	0.989	0.542	0.479	0.454	0.591	0.946	0.863	0.894	1.26	0.409	0.52	0.335	0.437
